Experimental data published in ChEMBL document CHEMBL4052799, “Discovery of orally bioavailable cyclohexanol-based NR2B-selective NMDA receptor antagonists with analgesic activity utilizing a scaffold hopping approach” (Bioorg Med Chem Lett, 2017).

Columns and labels:
[1] = Ratio of drug level in brain to plasma in Sprague-Dawley rat at 0.5 mg/kg, iv administered through cassette dosing measured after 0.5 hrs; type: ADME, organism-based; details: brain and plasma
[2] = Total clearance in Sprague-Dawley rat at 0.5 mg/kg, iv or 1 mg/kg, po administered through cassette dosing; type: ADME, organism-based; details: in vivo
[3] = target: Glutamate receptor ionotropic, NMDA 2B (Mus musculus, UniProt P35438+Q01097); assay: Antagonist activity at mouse NR2B expressed in Hek293 cells co-expressing mouse NR1 assessed as inhibition of glutamic acid/glycine-induced intracellular Ca2+ levels measured after 1 day post induction by Fluo-3/AM dye-based fluorescence assay; type: cell-based
Chain of Glutamate receptor ionotropic, NMDA 2B (Mus musculus, UniProt P35438+Q01097) (Q01097 whole entry, one chain of several): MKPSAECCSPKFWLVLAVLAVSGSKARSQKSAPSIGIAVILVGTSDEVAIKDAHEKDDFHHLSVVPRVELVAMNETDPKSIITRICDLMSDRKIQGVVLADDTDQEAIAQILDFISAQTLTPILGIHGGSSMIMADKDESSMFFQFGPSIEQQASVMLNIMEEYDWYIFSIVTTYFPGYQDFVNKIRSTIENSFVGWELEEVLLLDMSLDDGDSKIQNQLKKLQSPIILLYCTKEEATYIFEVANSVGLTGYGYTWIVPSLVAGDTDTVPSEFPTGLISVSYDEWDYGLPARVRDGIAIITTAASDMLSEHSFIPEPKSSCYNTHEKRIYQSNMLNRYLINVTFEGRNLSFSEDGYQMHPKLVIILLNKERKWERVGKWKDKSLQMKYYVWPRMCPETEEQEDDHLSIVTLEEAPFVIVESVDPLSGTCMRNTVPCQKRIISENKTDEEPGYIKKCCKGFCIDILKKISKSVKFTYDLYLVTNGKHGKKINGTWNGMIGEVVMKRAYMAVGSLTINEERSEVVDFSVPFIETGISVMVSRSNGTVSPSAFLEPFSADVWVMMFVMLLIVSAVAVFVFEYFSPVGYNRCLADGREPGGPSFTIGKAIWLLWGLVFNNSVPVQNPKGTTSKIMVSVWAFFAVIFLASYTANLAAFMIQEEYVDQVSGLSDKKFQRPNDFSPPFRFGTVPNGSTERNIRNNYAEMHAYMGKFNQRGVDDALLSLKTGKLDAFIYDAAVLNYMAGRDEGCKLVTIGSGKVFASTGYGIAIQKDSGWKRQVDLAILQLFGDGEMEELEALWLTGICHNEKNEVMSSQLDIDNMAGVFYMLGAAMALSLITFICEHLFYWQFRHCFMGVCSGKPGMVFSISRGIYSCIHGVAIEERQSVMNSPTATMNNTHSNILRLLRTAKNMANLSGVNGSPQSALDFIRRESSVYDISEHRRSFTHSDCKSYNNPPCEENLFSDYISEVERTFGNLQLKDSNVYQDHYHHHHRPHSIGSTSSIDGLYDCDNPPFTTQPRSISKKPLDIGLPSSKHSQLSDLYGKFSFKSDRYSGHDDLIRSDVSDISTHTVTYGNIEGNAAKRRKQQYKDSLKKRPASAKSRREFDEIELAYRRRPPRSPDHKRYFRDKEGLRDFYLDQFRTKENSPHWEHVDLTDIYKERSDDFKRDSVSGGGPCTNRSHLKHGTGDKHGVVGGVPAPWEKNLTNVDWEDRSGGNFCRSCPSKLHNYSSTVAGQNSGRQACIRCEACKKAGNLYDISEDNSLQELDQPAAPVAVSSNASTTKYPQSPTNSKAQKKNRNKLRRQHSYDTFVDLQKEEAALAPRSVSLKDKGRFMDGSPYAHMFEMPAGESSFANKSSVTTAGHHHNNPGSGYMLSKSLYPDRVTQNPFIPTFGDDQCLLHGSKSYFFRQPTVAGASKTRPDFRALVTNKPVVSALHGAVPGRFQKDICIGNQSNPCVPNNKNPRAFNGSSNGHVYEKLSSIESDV

[4] = Oral bioavailability in Sprague-Dawley rat at 1 mg/kg administered through cassette dosing; type: ADME, organism-based; details: in vivo
[5] = target: Glutamate receptor ionotropic, NMDA 2B (Rattus norvegicus, UniProt Q00960); assay: Displacement of [3H]-ifenprodil from NR2B in Wistar rat brain membrane after 120 mins by liquid scintillation counting analysis; type: cell membranes
Chain of Glutamate receptor ionotropic, NMDA 2B (Rattus norvegicus, UniProt Q00960) (Q00960 whole entry): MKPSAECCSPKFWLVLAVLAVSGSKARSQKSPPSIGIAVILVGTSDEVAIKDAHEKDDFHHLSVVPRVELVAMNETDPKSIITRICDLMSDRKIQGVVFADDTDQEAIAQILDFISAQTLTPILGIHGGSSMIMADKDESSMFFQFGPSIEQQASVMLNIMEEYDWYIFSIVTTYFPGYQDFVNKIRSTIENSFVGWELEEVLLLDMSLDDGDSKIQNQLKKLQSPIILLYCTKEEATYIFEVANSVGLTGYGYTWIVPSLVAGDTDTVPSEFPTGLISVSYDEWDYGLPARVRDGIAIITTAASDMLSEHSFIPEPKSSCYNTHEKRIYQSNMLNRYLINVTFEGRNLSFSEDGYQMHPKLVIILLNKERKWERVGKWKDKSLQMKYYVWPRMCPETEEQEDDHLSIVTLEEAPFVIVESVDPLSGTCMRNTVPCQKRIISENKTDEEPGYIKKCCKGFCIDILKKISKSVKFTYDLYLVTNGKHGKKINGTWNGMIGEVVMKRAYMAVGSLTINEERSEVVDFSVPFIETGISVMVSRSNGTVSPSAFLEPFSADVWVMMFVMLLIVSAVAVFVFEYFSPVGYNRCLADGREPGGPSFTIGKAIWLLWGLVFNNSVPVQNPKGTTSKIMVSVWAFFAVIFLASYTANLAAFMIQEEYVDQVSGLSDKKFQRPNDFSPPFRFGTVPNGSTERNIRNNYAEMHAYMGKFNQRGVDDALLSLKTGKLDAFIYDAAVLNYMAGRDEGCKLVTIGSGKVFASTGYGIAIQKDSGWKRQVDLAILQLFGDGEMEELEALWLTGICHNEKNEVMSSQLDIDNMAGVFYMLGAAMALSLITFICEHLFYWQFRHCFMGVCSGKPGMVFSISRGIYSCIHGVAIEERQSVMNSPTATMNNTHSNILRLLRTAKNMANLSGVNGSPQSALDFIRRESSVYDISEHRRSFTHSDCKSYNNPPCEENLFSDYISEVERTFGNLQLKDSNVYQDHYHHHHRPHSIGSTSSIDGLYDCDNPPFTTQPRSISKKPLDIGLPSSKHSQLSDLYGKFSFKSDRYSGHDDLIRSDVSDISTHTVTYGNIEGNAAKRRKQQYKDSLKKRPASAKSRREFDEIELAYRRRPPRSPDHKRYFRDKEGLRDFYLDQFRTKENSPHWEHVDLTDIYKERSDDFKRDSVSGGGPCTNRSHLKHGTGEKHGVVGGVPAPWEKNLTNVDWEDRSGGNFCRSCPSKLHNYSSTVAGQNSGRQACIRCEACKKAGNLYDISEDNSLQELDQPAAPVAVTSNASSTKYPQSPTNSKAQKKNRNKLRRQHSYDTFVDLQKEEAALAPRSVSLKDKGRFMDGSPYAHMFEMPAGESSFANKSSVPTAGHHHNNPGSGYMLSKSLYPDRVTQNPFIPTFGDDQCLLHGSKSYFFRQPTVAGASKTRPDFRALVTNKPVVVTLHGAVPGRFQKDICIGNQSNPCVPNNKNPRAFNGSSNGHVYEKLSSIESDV

hERG (KCNH2) = hERG (KCNH2) (Homo sapiens, UniProt Q12809); assay: Inhibition of human ERG expressed in HEK293 cells at 1 uM after 10 mins by whole cell patch clamp method relative to control; type: cell-based; details: HEK293 cells that express hERG
Chain of hERG (KCNH2) (Q12809 whole entry): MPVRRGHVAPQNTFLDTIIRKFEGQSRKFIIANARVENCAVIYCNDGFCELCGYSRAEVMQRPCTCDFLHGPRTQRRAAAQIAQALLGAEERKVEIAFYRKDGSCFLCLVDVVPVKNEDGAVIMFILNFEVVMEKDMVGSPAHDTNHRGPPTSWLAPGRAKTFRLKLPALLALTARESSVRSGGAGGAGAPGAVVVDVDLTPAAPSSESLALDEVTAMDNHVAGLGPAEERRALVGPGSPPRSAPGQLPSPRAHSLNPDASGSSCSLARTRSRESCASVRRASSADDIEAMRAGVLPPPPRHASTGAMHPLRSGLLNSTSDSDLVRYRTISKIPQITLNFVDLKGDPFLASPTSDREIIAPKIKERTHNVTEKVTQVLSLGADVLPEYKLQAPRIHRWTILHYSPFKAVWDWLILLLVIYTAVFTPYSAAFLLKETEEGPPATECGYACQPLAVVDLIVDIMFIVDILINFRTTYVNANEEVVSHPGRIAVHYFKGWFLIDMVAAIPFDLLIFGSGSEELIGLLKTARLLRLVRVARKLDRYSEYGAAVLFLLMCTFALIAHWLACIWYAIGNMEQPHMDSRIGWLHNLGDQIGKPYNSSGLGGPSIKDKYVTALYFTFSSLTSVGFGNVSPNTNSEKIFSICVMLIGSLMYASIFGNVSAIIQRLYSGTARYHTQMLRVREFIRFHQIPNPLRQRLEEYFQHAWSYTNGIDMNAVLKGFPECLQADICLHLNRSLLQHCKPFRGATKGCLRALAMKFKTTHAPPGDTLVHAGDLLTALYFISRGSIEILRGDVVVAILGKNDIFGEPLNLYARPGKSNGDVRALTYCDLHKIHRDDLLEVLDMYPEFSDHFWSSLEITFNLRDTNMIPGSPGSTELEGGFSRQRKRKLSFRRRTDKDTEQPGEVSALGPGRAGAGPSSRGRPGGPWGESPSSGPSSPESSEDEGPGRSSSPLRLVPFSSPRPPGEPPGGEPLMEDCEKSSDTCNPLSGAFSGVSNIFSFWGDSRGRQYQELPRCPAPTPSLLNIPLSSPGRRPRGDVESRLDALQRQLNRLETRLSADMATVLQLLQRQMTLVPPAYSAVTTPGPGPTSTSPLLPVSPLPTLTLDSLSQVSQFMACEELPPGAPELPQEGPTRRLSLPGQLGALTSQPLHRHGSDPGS

Mus musculus [6] = assay: Analgesic activity in po dosed formalin-induced chronic pain ICR mouse model assessed as reduction in rate of licking time in early phase at 30 mg/kg administered 30 min prior to formalin challenge measured during first 5 mins post formalin challenge relative to control; type: functional
Mus musculus [7] = assay: Analgesic activity in po dosed formalin-induced chronic pain ICR mouse model assessed as reduction in rate of licking time in late phase at 30 mg/kg administered 30 min prior to formalin challenge measured during 10 to 30 mins post formalin challenge relative to control; type: functional
Mus musculus [8] = assay: Analgesic activity in po dosed formalin-induced chronic pain ICR mouse model assessed as reduction in rate of licking time in early phase at 50 mg/kg administered 30 min prior to formalin challenge measured during first 5 mins post formalin challenge relative to control; type: functional
Mus musculus [9] = assay: Analgesic activity in po dosed formalin-induced chronic pain ICR mouse model assessed as reduction in rate of licking time in late phase at 50 mg/kg administered 30 min prior to formalin challenge measured during 10 to 30 mins post formalin challenge relative to control; type: functional

Structure (SMILES)	Kp at 0.5 h [1]	clearance [2] [mL/min/kg]	IC50 [3] [nM]	bioavailability [4] [%]	IC50 [5] [nM]	inhibition at 10 min, 1 µM (hERG (KCNH2)) [%]	inhibition in vivo at 30 mg/kg (Mus musculus [6]) [%]	inhibition in vivo at 30 mg/kg (Mus musculus [7]) [%]	inhibition in vivo at 50 mg/kg (Mus musculus [8]) [%]	inhibition in vivo at 50 mg/kg (Mus musculus [9]) [%]
O=C(C[C@]1(O)CC[C@@H](Cc2ccc(F)c(F)c2)CC1)Nc1ccc2[nH]c(=O)oc2c1	0.14	35.7	2	12.1	25.1	–	–	–	–	–
O=c1ccc(-c2nc(C[C@]3(O)CC[C@@H](Cc4ccc(Cl)cc4)CC3)no2)c[nH]1	–	–	158	–	126	–	–	–	–	–
O=C(C[C@]1(O)CC[C@@H](Cc2ccc(C(F)(F)F)cc2)CC1)Nc1ccc2[nH]c(=O)oc2c1	–	–	6.31	–	25.1	–	–	–	–	–
O=c1ccc(-c2cc(C[C@]3(O)CC[C@@H](Cc4ccccc4)CC3)no2)c[nH]1	0.34	37.6	10	53.1	25.1	4.4	–	–	–	–
O[C@]1(Cc2cc(-c3cn[nH]c3)on2)CC[C@H](Cc2ccc(C(F)(F)F)cc2)CC1	2.66	4	12.6	67.5	100	–	84.8	96.5	–	–
O=C(C[C@]1(O)CC[C@H](Cc2ccccc2)CC1)Nc1ccc2[nH]c(=O)oc2c1	0.9	35.1	15.8	33	31.6	7.7	–	–	–	–
O=C(C[C@]1(O)CC[C@@H](Cc2ccc(Cl)cc2)CC1)Nc1ccc2[nH]c(=O)oc2c1	–	–	3.16	–	25.1	–	–	–	–	–
O=c1[nH]c2ccc(-c3cc(C[C@]4(O)CC[C@@H](Cc5ccc(Cl)cc5)CC4)no3)cc2o1	–	–	39.8	–	200	–	–	–	–	–
O[C@]1(Cc2cc(-c3cn[nH]c3)on2)CC[C@H](Cc2ccc(F)c(F)c2)CC1	1.99	15.2	39.8	67.5	79.4	15	–	–	–	–
O=C1Cc2cc(NC(=O)C[C@]3(O)CC[C@@H](Cc4ccccc4)CC3)ccc2N1	0.11	16.5	15.8	28.2	31.6	12.1	–	–	–	–
O[C@]1(Cc2cc(-c3cn[nH]c3)on2)CC[C@H](Cc2ccc(Cl)cc2)CC1	1.31	11.7	6.31	72.8	39.8	32	–	–	–	–
O=c1[nH]c2ccc(-c3cc(C[C@]4(O)CC[C@@H](Cc5ccccc5)CC4)no3)cc2o1	0.92	12.1	15.8	8.4	100	–	–	–	–	–
O=c1ccc(-c2cc(C[C@]3(O)CC[C@@H](Cc4ccc(Cl)cc4)CC3)no2)c[nH]1	0.08	16.8	1	37.2	25.1	23	–	–	–	–
O=C(C[C@]1(O)CC[C@@H](Cc2ccccc2)CC1)Nc1ccc2[nH]ncc2c1	0.9	21.5	39.8	23.7	63.1	18	–	–	59.5	74.4
O[C@]1(Cc2cc(-c3cn[nH]c3)on2)CC[C@@H](Cc2ccc(Cl)cc2)CC1	–	–	200	–	631	–	–	–	–	–
O=C(C[C@]1(O)CC[C@@H](Cc2ccc(F)cc2)CC1)Nc1ccc2[nH]c(=O)oc2c1	0.12	36.8	0.631	42.4	25.1	26.1	–	–	–	–
O=C(C[C@]1(O)CC[C@@H](Cc2ccc(OC(F)(F)F)cc2)CC1)Nc1ccc2[nH]c(=O)oc2c1	0.15	21	3.16	53.4	50.1	–	–	–	–	–
COc1ccc(C[C@H]2CC[C@](O)(Cc3cc(-c4cn[nH]c4)on3)CC2)cc1	1.64	61.8	25.1	23.7	39.8	–	–	–	–	–
O=C(C[C@]1(O)CC[C@@H](Cc2ccccc2)CC1)Nc1ccc2[nH]c(=O)oc2c1	0.25	34.1	0.631	47.4	15.8	13.2	–	–	58.1	66.7
COc1ccc(C[C@H]2CC[C@](O)(CC(=O)Nc3ccc4[nH]c(=O)oc4c3)CC2)cc1	0.11	45.9	1	16	63.1	–	–	–	–	–
O[C@]1(Cc2cc(-c3cn[nH]c3)on2)CC[C@H](Cc2ccc(OC(F)(F)F)cc2)CC1	2.51	6.2	25.1	121	79.4	–	76.8	95.4	–	–
O[C@]1(Cc2cc(-c3cn[nH]c3)on2)CC[C@H](Cc2ccccc2)CC1	1.44	56.5	15.8	46.3	39.8	14	–	–	–	–
O=c1ccc(-c2cc(C[C@]3(O)CC[C@H](Cc4ccc(Cl)cc4)CC3)no2)c[nH]1	0.47	6.6	63.1	38.7	316	29.2	–	–	–	–
O=C1CCc2cc(NC(=O)C[C@]3(O)CC[C@@H](Cc4ccccc4)CC3)ccc2N1	0.18	24.4	10	53.4	31.6	11.3	–	–	1.5	25.7
O[C@]1(Cc2cc(-c3cn[nH]c3)on2)CC[C@H](Cc2ccc(F)cc2)CC1	1.62	30	12.6	78	12.6	22.5	–	–	–	–
O=C(C[C@]1(O)CC[C@H](Cc2ccc(F)cc2)CC1)Nc1ccc2[nH]c(=O)oc2c1	0.23	42.3	15.8	58	39.8	12.2	–	–	–	–
O=C(Nc1ccc2[nH]c(=O)oc2c1)C(=O)N1CCC(Cc2ccc(F)cc2)CC1 [RADIPRODIL]	1	37.1	3.16	30	31.6	–	–	–	–	–
